The values below come from patent US20250339569A1, “CARBONIC ANHYDRASE IX LIGANDS” (priority 2021, published 2025).

Starred links: 1 amine or outer side, 2 acyl side, 3 side chain; linkers in the order of their positions; H or OH if unused. Positions of bridges follow the written chain, without caps; N, C: chain ends. Non-standard residues stand in square brackets, D forms with d. Residues, ends and D or L forms follow the SMILES beside them. *: point of attachment. NH(CH2)3NH(O2Oc(DOTA)) = O=C(O)CN1CCN(CC(=O)O)CCN(CC(=O)NCCOCCOCC(=O)NCCCN*)CCN(CC(=O)O)CC1; NH(CH2)3NHDOTA = O=C(O)CN1CCN(CC(=O)O)CCN(CC(=O)NCCCN*)CCN(CC(=O)O)CC1; DOTA = O=C(O)CN1CCN(CC(=O)O)CCN(CC(=O)*)CCN(CC(=O)O)CC1; mXylylene = c1cc(C[*:1])cc(C[*:2])c1; X2 = O=C(CN1CCC(N[*:1])CC1)[*:2]; Isovaleryl = CC(C)CC(=O)*; Ac6c = NC1(C(=O)O)CCCCC1; Orn = NCCC[C@H](N)C(=O)O; Dab = NCC[C@H](N)C(=O)O Where only a bound is given, the exact number is not on record here.

For the first assay, the target named is T1, CAIX-expressing human HT-29 colorectal cancer cells (Homo sapiens, UniProt Q16790).
T1 construct: CAIX-expressing human HT-29 colorectal cancer cells; host or cells: HT-29 human colorectal cancer cells
In words: FACS binding assay (IC50 determination, competition with tracer 3BP-2776 or 3BP-4149). Particulars: FACS binding assay, HT-29 cells, competition with tracer 3BP-2776 (10 nM, biotin-labeled), 4° C., 1 hour; read-out: pIC50 category (activity) (converted). The method in brief:
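HT-29 cells in FACS buffer (PBS, 1% FCS) at 500.000 cells/ml were exposed to compounds competing with a labelled tracer, with biotinylated compounds detected by 1 μg/mL APC-streptavidin for 30 min on ice. APC/Cy5 median fluorescence was read by flow cytometry and IC50 derived by 4PL fit.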
(In flow cytometry, cells or beads pass a laser one at a time.)
Turning to `CC(=O)N[C@H](C(=O)N[C@@H](Cc1ccc(O)cc1)C(=O)N[C@H]1CSCc2cccc(c2)CSC[C@@H](C(N)=O)NC(=O)[C@H](CO)NC(=O)[C@H](Cc2c[nH]c3ccccc23)NC(=O)[C@@H]2CCC(=O)NCCC[C@H](NC(=O)[C@H]3CCCN3C(=O)[C@H](CCC(=O)O)NC1=O)C(=O)N[C@@H](Cc1c[nH]c3ccccc13)C(=O)N[C@@H](CC(C)C)C(=O)N2)C(C)C` [3BP-3958] (Ac-VYCE[dP][Orn]WLEWSC-NH2; linker 3-12 via mXylylene; lactam 6-9), the IC50 is 10 to 79.4 nM.

On to `CC(=O)N[C@H](C(=O)N[C@@H](Cc1ccc(O)cc1)C(=O)N[C@H]1CSCc2cccc(c2)CSC[C@@H](C(N)=O)NC(=O)[C@H](CO)NC(=O)[C@H](Cc2c[nH]c3ccccc23)NC(=O)[C@@H]2CCC(=O)NCC[C@H](NC(=O)[C@H]3CCCN3C(=O)[C@H](CCC(=O)O)NC1=O)C(=O)N[C@@H](Cc1c[nH]c3ccccc13)C(=O)N[C@@H](CC(C)C)C(=O)N2)C(C)C` [3BP-3960] (Ac-VYCE[dP][Dab]WLEWSC-NH2; linker 3-12 via mXylylene; lactam 6-9), for which the IC50 is 10 to 79.4 nM.

As to `CC(=O)N[C@H](C(=O)N[C@@H](Cc1ccc(O)cc1)C(=O)N[C@H]1CSCc2cccc(c2)CSC[C@@H](C(N)=O)NC(=O)[C@H](CO)NC(=O)[C@H](Cc2c[nH]c3ccccc23)NC(=O)[C@@H]2CCC(=O)NCCCC[C@H](NC(=O)[C@H]3CCCN3C(=O)[C@H](CCC(=O)O)NC1=O)C(=O)N[C@@H](Cc1c[nH]c3ccccc13)C(=O)NC1(CCCCC1)C(=O)N2)C(C)C` [3BP-3961] (Ac-VYCE[dP]KW[Ac6c]EWSC-NH2; linker 3-12 via mXylylene; lactam 6-9), the IC50 was 10 to 79.4 nM.

The assay is the same for the next values; noted with them: FACS competition on HT-29 cells, Tracer ID 3BP-2776 (10 nM, biotin-labeled), 4° C., 1 hour; read-out: pIC50 category (activity) (converted).
For the compound `CC(=O)N[C@@H](Cc1ccc(O)cc1)C(=O)N[C@H]1CSCc2cccc(c2)CSC[C@@H](C(N)=O)NC(=O)[C@H](CCC(=O)NCCCNC(=O)CN2CCN(CC(=O)O)CCN(CC(=O)O)CCN(CC(=O)O)CC2)NC(=O)[C@H](Cc2c[nH]c3ccccc23)NC(=O)[C@H]([C@@H](C)O)NC(=O)[C@H](CC(C)C)NC(=O)[C@H](Cc2c[nH]c3ccccc23)NC(=O)[C@H](CC(=O)O)NC(=O)[C@H]2CCCN2C(=O)[C@H](CCC(=O)O)NC1=O` [3BP-3841] (Ac-YCE[dP]DWLTWE(NH(CH2)3NHDOTA)C-NH2; linker 2-11 via mXylylene), the IC50 is < 10 nM.

On to `CC(C)CC(=O)N[C@@H](CC(=O)O)C(=O)N[C@H]1CSCc2cccc(c2)CSC[C@@H](C(N)=O)NC(=O)[C@H](CCC(=O)NCCCNC(=O)COCCOCCNC(=O)CN2CCN(CC(=O)O)CCN(CC(=O)O)CCN(CC(=O)O)CC2)NC(=O)[C@H](Cc2c[nH]c3ccccc23)NC(=O)[C@H]([C@@H](C)O)NC(=O)[C@H](CC(C)C)NC(=O)[C@H](Cc2c[nH]c3ccccc23)NC(=O)[C@H](CC(=O)O)NC(=O)[C@H]2CCCN2C(=O)[C@H](CCC(=O)O)NC1=O` [3BP-3871] (Isovaleryl-DCE[dP]DWLTWE(NH(CH2)3NH(O2Oc(DOTA)))C-NH2; linker 2-11 via mXylylene), for which the IC50 was 10 to 79.4 nM.

`CC(C)CC(=O)N[C@@H](CCC(=O)O)C(=O)N[C@H]1CSCc2cccc(c2)CSC[C@@H](C(N)=O)NC(=O)[C@H](CCC(=O)NCCCNC(=O)COCCOCCNC(=O)CN2CCN(CC(=O)O)CCN(CC(=O)O)CCN(CC(=O)O)CC2)NC(=O)[C@H](Cc2c[nH]c3ccccc23)NC(=O)[C@H]([C@@H](C)O)NC(=O)[C@H](CC(C)C)NC(=O)[C@H](Cc2c[nH]c3ccccc23)NC(=O)[C@H](CC(=O)O)NC(=O)[C@H]2CCCN2C(=O)[C@H](CCC(=O)O)NC1=O` [3BP-3872] (Isovaleryl-ECE[dP]DWLTWE(NH(CH2)3NH(O2Oc(DOTA)))C-NH2; linker 2-11 via mXylylene): the IC50 was 10 to 79.4 nM.

For the compound `CC(=O)N[C@H](C(=O)N[C@@H](Cc1ccc(O)cc1)C(=O)N[C@H]1CSCc2cccc(c2)CSC[C@@H](C(N)=O)NC(=O)[C@H](CO)NC(=O)[C@H](Cc2c[nH]c3ccccc23)NC(=O)[C@@H]2CCC(=O)NCCCC[C@H](NC1=O)C(=O)N1CCC[C@@H]1C(=O)N[C@@H](CC(=O)O)C(=O)N[C@@H](Cc1c[nH]c3ccccc13)C(=O)N[C@@H](CC(C)C)C(=O)N2)C(C)C` [3BP-3888] (Ac-VYCK[dP]DWLEWSC-NH2; linker 3-12 via mXylylene; lactam 4-9), the IC50 is 10 to 79.4 nM.

As for `CC(=O)N[C@H](C(=O)N[C@@H](Cc1ccc(O)cc1)C(=O)N[C@H]1CSCc2cccc(c2)CSC[C@@H](C(N)=O)NC(=O)[C@H](CO)NC(=O)[C@H](Cc2c[nH]c3ccccc23)NC(=O)[C@@H]2CCC(=O)NCCCC[C@H](NC(=O)[C@H]3CCCN3C(=O)[C@H](CCC(=O)O)NC1=O)C(=O)N[C@@H](Cc1c[nH]c3ccccc13)C(=O)N[C@@H](CC(C)C)C(=O)N2)C(C)C` [3BP-3890] (Ac-VYCE[dP]KWLEWSC-NH2; linker 3-12 via mXylylene; lactam 6-9), the IC50 is < 10 nM.

`CC(=O)N[C@H](C(=O)N[C@@H](Cc1ccc(O)cc1)C(=O)N[C@H]1CSCc2cccc(c2)CSC[C@@H](C(N)=O)NC(=O)[C@H](CO)NC(=O)[C@H](Cc2c[nH]c3ccccc23)NC(=O)[C@@H]2CCCCNC(=O)CC[C@H](NC1=O)C(=O)N1CCC[C@@H]1C(=O)N[C@@H](CC(=O)O)C(=O)N[C@@H](Cc1c[nH]c3ccccc13)C(=O)N[C@@H](CC(C)C)C(=O)N2)C(C)C` [3BP-3899] (Ac-VYCE[dP]DWLKWSC-NH2; linker 3-12 via mXylylene; lactam 4-9): the IC50 was 100 to 794 nM.

As to `CC(=O)N[C@H](C(=O)N[C@@H](Cc1ccc(O)cc1)C(=O)N[C@H]1CSCc2cccc(c2)CSC[C@@H](C(N)=O)NC(=O)[C@H](CO)NC(=O)[C@H](Cc2c[nH]c3ccccc23)NC(=O)[C@@H]2CCCCNC(=O)CC[C@H](NC(=O)[C@H]3CCCN3C(=O)[C@H](CCC(=O)O)NC1=O)C(=O)N[C@@H](Cc1c[nH]c3ccccc13)C(=O)N[C@@H](CC(C)C)C(=O)N2)C(C)C` [3BP-3901] (Ac-VYCE[dP]EWLKWSC-NH2; linker 3-12 via mXylylene; lactam 6-9), the IC50 was 10 to 79.4 nM.

With `CC(C)C[C@@H]1NC(=O)[C@H](Cc2c[nH]c3ccccc23)NC(=O)[C@@H]2CCCCNC(=O)CC[C@H](NC1=O)C(=O)N[C@@H](Cc1c[nH]c3ccccc13)C(=O)N[C@@H](CO)C(=O)N[C@H](C(N)=O)CSCc1cccc(c1)CSC[C@H](NC(=O)[C@H](Cc1ccc(O)cc1)NC(=O)[C@@H](NC(=O)CN1CCC(NC(=O)CN3CCN(CC(=O)O)CCN(CC(=O)O)CCN(CC(=O)O)CC3)CC1)C(C)C)C(=O)N[C@@H](CCC(=O)O)C(=O)N1CCC[C@@H]1C(=O)N2` [3BP-3933] ({DOTA}-[X2]VYCE[dP]KWLEWSC-NH2; linker 4-13 via mXylylene; lactam 7-10), the IC50 is 10 to 79.4 nM.

Turning to `CC(=O)N[C@H](C(=O)N[C@@H](Cc1ccc(O)cc1)C(=O)N[C@H]1CSCc2cccc(c2)CSC[C@@H](C(N)=O)NC(=O)[C@H](CO)NC(=O)[C@H](Cc2c[nH]c3ccccc23)NC(=O)[C@H]2CCC(=O)NCCCC[C@H](NC(=O)[C@H]3CCCN3C(=O)[C@H](CCC(=O)O)NC1=O)C(=O)N[C@@H](Cc1c[nH]c3ccccc13)C(=O)N[C@@H](CC(C)C)C(=O)N2)C(C)C` [3BP-3957] (Ac-VYCE[dP]KWL[dE]WSC-NH2; linker 3-12 via mXylylene; lactam 6-9), the IC50 is < 10 nM.
